# In US11649255B2, “Indazoles as hematopoietic progenitor kinase 1 (HPK1) inhibitors and methods using same” (1st Biotherapeutics, Inc., priority 2020, dated 2023):
# Target: recombinant human HPK1 (Homo sapiens (Human), UniProt Q92918)
# Test: HPK1 kinase assay (ADP-Glo)
# Format: biochemical
# Details: 25 μM ATP, MBP substrate
# Method in brief: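 Activity was read as ADP formed, detected by ADP-Glo luminescence after the reaction of 5 ng recombinant human HPK1 with MBP and ATP (stocks 0.5 μg/μl and 25 μM) for 40 min at 30 °C. Buffer was Tris pH 7.5 with MgCl2, BSA and DTT, with compound in 0.5% DMSO. IC50 came from inhibition curves.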
# Sequence of recombinant human HPK1 (Q92918 whole entry): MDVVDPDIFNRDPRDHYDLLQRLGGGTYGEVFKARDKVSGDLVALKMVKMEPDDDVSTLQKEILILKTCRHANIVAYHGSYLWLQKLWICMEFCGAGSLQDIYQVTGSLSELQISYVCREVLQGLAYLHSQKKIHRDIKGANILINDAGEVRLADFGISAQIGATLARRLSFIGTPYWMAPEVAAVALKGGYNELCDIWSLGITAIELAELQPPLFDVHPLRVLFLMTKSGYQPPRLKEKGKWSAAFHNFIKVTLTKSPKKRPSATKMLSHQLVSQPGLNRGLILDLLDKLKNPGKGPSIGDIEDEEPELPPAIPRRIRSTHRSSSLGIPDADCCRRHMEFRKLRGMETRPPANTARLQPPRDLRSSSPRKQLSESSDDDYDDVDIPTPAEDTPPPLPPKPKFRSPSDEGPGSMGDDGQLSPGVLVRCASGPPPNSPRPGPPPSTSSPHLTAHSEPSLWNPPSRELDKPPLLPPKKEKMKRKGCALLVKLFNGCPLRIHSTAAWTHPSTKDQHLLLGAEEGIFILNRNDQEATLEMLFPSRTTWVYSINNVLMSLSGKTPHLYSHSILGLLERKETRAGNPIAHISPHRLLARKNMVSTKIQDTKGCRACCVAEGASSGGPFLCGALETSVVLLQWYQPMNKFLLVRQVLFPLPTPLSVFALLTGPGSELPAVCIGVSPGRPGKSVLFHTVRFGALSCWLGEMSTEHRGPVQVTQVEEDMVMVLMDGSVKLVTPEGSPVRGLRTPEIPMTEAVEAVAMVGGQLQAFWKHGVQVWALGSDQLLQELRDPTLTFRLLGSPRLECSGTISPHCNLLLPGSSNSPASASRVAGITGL
row,Structure (SMILES),IC50 [nM]
1,"CCc1c(F)c(SCC(=O)O)c2[nH]ncc2c1-c1ccc2nc(NC(=O)[C@@H]3C[C@@H]3F)sc2n1 [Example 168, 2-((5-ethyl-6-fluoro-4-(2-((1S,2S)-2-fluorocyclopropane-1-carboxamido)thiazolo[5,4-b]pyridin-5-yl)-1H-indazol-7-yl)thio)acetic acid]",101 to 500
2,"O=C(Nc1nc2ccc(-c3c(F)c(C(F)(F)F)cc4[nH]ncc34)nc2s1)[C@@H]1C[C@@H]1F [Example 171, (1S,2S)-2-fluoro-N-(5-(5-fluoro-6-(trifluoromethyl)-1H-indazol-4-yl)thiazolo[5,4-b]pyridin-2-yl)cyclopropane-1-carboxamide]",> 1000
3,"CCc1c(F)c(F)c2[nH]ncc2c1-c1ccc2nc(NC(=O)[C@@H]3C[C@@H]3F)sc2n1 [Example 176, (1S,2S)-N-(5-(5-ethyl-6,7-difluoro-1H-indazol-4-yl)thiazolo[5,4-b]pyridin-2-yl)-2-fluorocyclopropane-1-carboxamide]",< 100
4,"Cc1c(F)c([S+](C)[O-])c2[nH]ncc2c1-c1ccc2nc(NC(=O)[C@@H]3C[C@@H]3F)sc2n1 (stereo partly drawn) [Example 177, (1S,2S)-2-fluoro-N-(5-(6-fluoro-5-methyl-7-(methylsulfinyl)-1H-indazol-4-yl)thiazolo[5,4-b]pyridin-2-yl)cyclopropane-1-carboxamide]",101 to 500
5,"CCOc1c(F)c(CC)c(-c2ccc3nc(NC(=O)[C@@H]4C[C@@H]4F)sc3n2)c2cn[nH]c12 [Example 178, (1S,2S)-N-(5-(7-ethoxy-5-ethyl-6-fluoro-1H-indazol-4-yl)thiazolo[5,4-b]pyridin-2-yl)-2-fluorocyclopropane-1-carboxamide]",< 100
6,"Cc1c(F)c(F)c2[nH]ncc2c1-c1ccc2nc(NC(=O)[C@@H]3C[C@@H]3F)sc2n1 [Example 186, (1S,2S)-N-(5-(6,7-difluoro-5-methyl-1H-indazol-4-yl)thiazolo[5,4-b]pyridin-2-yl)-2-fluorocyclopropane-1-carboxamide]",< 100
7,"CSc1c(F)c(F)c2[nH]ncc2c1-c1ccc2nc(NC(=O)[C@@H]3C[C@@H]3F)sc2n1 [Example 187, (1S,2S)-N-(5-(6,7-difluoro-5-(methylthio)-1H-indazol-4-yl)thiazolo[5,4-b]pyridin-2-yl)-2-fluorocyclopropane-1-carboxamide]",< 100
8,"CN(Nc1c(F)c(Cl)c(-c2ccc3nc(NC(=O)[C@@H]4C[C@@H]4F)sc3n2)c2cn[nH]c12)C(=O)OC(C)(C)C [Example 192, tert-butyl 2-(5-chloro-6-fluoro-4-(2-((1S,2S)-2-fluorocyclopropane-1-carboxamido)thiazolo[5,4-b]pyridin-5-yl)-1H-indazol-7-yl)-1-methylhydrazine-1-carboxylate]",< 100
9,"O=C(Nc1nc2ccc(-c3c(C(F)(F)F)c(F)c(Cl)c4[nH]ncc34)nc2s1)[C@@H]1C[C@@H]1F [Example 198, (1S,2S)-N-(5-(7-chloro-6-fluoro-5-(trifluoromethyl)-1H-indazol-4-yl)thiazolo[5,4-b]pyridin-2-yl)-2-fluorocyclopropane-1-carboxamide]",< 100
10,"CCOc1c(F)cc2[nH]ncc2c1-c1ccc2nc(NC(=O)[C@@H]3C[C@@H]3F)sc2n1 [Example 201, (1S,2S)-N-(5-(5-ethoxy-6-fluoro-1H-indazol-4-yl)thiazolo[5,4-b]pyridin-2-yl)-2-fluorocyclopropane-1-carboxamide]",> 1000
11,"CNC(=O)OCCN(C)c1c(F)c(C)c(-c2ccc3nc(NC(=O)[C@@H]4C[C@@H]4F)sc3n2)c2cn[nH]c12 [Example 202, 2-((6-fluoro-4-(2-((1S,2S)-2-fluorocyclopropane-1-carboxamido)thiazolo[5,4-b]pyridin-5-yl)-5-methyl-1H-indazol-7-yl)(methyl)amino)ethyl methylcarbamate]",< 100
12,"Cc1c(F)c(C(F)(F)F)c2[nH]ncc2c1-c1ccc2nc(NC(=O)[C@@H]3C[C@@H]3F)sc2n1 [Example 205, (1S,2S)-2-fluoro-N-(5-(6-fluoro-5-methyl-7-(trifluoromethyl)-1H-indazol-4-yl)thiazolo[5,4-b]pyridin-2-yl)cyclopropane-1-carboxamide]",< 100
13,"CN(C)c1c(F)c(C(F)(F)F)c(-c2ccc3nc(NC(=O)[C@@H]4C[C@@H]4F)sc3n2)c2cn[nH]c12 [Example 207, (1S,2S)-N-(5-(7-(dimethylamino)-6-fluoro-5-(trifluoromethyl)-1H-indazol-4-yl)thiazolo[5,4-b]pyridin-2-yl)-2-fluorocyclopropane-1-carboxamide]",< 100

# Continued, values first:
row,IC50 [nM],Structure (SMILES)
1,< 100,"CC(=O)Nc1c(F)c(Cl)c(-c2ccc3nc(NC(=O)[C@@H]4C[C@@H]4F)sc3n2)c2cn[nH]c12 [Example 179, (1S,2S)-N-(5-(7-acetamido-5-chloro-6-fluoro-1H-indazol-4-yl)thiazolo[5,4-b]pyridin-2-yl)-2-fluorocyclopropane-1-carboxamide]"
2,101 to 500,"C[S+]([O-])c1c(F)c(Cl)c(-c2ccc3nc(NC(=O)[C@@H]4C[C@@H]4F)sc3n2)c2cn[nH]c12 (stereo partly drawn) [Example 180, (1S,2S)-N-(5-(5-chloro-6-fluoro-7-(methylsulfinyl)-1H-indazol-4-yl)thiazolo[5,4-b]pyridin-2-yl)-2-fluorocyclopropane-1-carboxamide]"
3,101 to 500,"CC(=O)Nc1c(F)c(C)c(-c2ccc3nc(NC(=O)[C@@H]4C[C@@H]4F)sc3n2)c2cn[nH]c12 [Example 181, (1S,2S)-N-(5-(7-acetamido-6-fluoro-5-methyl-1H-indazol-4-yl)thiazolo[5,4-b]pyridin-2-yl)-2-fluorocyclopropane-1-carboxamide]"
4,< 100,"COC(=O)c1c(F)c(C)c(-c2ccc3nc(NC(=O)[C@@H]4C[C@@H]4F)sc3n2)c2cn[nH]c12 [Example 183, methyl 6-fluoro-4-(2-((1S,2S)-2-fluorocyclopropane-1-carboxamido)thiazolo[5,4-b]pyridin-5-yl)-5-methyl-1H-indazole-7-carboxylate]"
5,101 to 500,"CS(=O)(=O)c1c(F)c(Cl)c(-c2ccc3nc(NC(=O)[C@@H]4C[C@@H]4F)sc3n2)c2cn[nH]c12 [Example 185, (1S,2S)-N-(5-(5-chloro-6-fluoro-7-(methylsulfonyl)-1H-indazol-4-yl)thiazolo[5,4-b]pyridin-2-yl)-2-fluorocyclopropane-1-carboxamide]"
6,> 1000,"Cc1c(F)c(C(=O)O)c2[nH]ncc2c1-c1ccc2nc(NC(=O)[C@@H]3C[C@@H]3F)sc2n1 [Example 188, 6-fluoro-4-(2-((1S,2S)-2-fluorocyclopropane-1-carboxamido)thiazolo[5,4-b]pyridin-5-yl)-5-methyl-1H-indazole-7-carboxylic acid]"
7,< 100,"CC(=O)N(C)c1c(F)c(Cl)c(-c2ccc3nc(NC(=O)[C@@H]4C[C@@H]4F)sc3n2)c2cn[nH]c12 [Example 189, (1S,2S)-N-(5-(5-chloro-6-fluoro-7-(N-methylacetamido)-1H-indazol-4-yl)thiazolo[5,4-b]pyridin-2-yl)-2-fluorocyclopropane-1-carboxamide]"
8,< 100,"CNNc1c(F)c(Cl)c(-c2ccc3nc(NC(=O)[C@@H]4C[C@@H]4F)sc3n2)c2cn[nH]c12 [Example 191, (1S,2S)-N-(5-(5-chloro-6-fluoro-7-(2-methylhydrazineyl)-1H-indazol-4-yl)thiazolo[5,4-b]pyridin-2-yl)-2-fluorocyclopropane-1-carboxamide]"
9,101 to 500,"CNC(=O)c1c(F)c(Cl)c(-c2ccc3nc(NC(=O)[C@@H]4C[C@@H]4F)sc3n2)c2cn[nH]c12 [Example 195, 5-chloro-6-fluoro-4-(2-((1S,2S)-2-fluorocyclopropane-1-carboxamido)thiazolo[5,4-b]pyridin-5-yl)-N-methyl-1H-indazole-7-carboxamide]"
10,< 100,"Cc1c(F)c(C(=O)N(C)C)c2[nH]ncc2c1-c1ccc2nc(NC(=O)[C@@H]3C[C@@H]3F)sc2n1 [Example 197, 6-fluoro-4-(2-((1S,2S)-2-fluorocyclopropane-1-carboxamido)thiazolo[5,4-b]pyridin-5-yl)-N,N,5-trimethyl-1H-indazole-7-carboxamide]"
11,< 100,"CCc1c(F)c(N(C)CC)c2[nH]ncc2c1-c1ccc2nc(NC(=O)[C@@H]3C[C@@H]3F)sc2n1 [Example 200, (1S,2S)-N-(5-(5-ethyl-7-(ethyl(methyl)amino)-6-fluoro-1H-indazol-4-yl)thiazolo[5,4-b]pyridin-2-yl)-2-fluorocyclopropane-1-carboxamide]"
12,< 100,"Cc1c(F)c(N(C)CCO)c2[nH]ncc2c1-c1ccc2nc(NC(=O)[C@@H]3C[C@@H]3F)sc2n1 [Example 204, (1S,2S)-2-fluoro-N-(5-(6-fluoro-7-((2-hydroxyethyl)(methyl)amino)-5-methyl-1H-indazol-4-yl)thiazolo[5,4-b]pyridin-2-yl)cyclopropane-1-carboxamide]"
13,101 to 500,"CNC(=O)c1c(F)c(C)c(-c2ccc3nc(NC(=O)[C@@H]4C[C@@H]4F)sc3n2)c2cn[nH]c12 [Example 206, 6-fluoro-4-(2-((1S,2S)-2-fluorocyclopropane-1-carboxamido)thiazolo[5,4-b]pyridin-5-yl)-N,5-dimethyl-1H-indazole-7-carboxamide]"
14,< 100,"O=C(Nc1nc2ccc(-c3c(Cl)c(F)c(F)c4[nH]ncc34)nc2s1)[C@@H]1C[C@@H]1F [Example 208, (1S,2S)-N-(5-(5-chloro-6,7-difluoro-1H-indazol-4-yl)thiazolo[5,4-b]pyridin-2-yl)-2-fluorocyclopropane-1-carboxamide 2,2,2-trifluoroacetate]"
15,< 100,"O=C(Nc1nc2ccc(-c3c(Cl)c(F)c(C(F)F)c4[nH]ncc34)nc2s1)[C@@H]1C[C@@H]1F [Example 209, (1S,2S)-N-(5-(5-chloro-7-(difluoromethyl)-6-fluoro-1H-indazol-4-yl)thiazolo[5,4-b]pyridin-2-yl)-2-fluorocyclopropane-1-carboxamide]"
